Reference: article PMC7129073 (Clinical Microbiology and Infection, 2015)
Values after ≈ are worked out from the molar mass of the structure shown.

Columns and labels:
[1] = system: PRSP; test: Broth microdilution; format: cell-based, Streptococcus pneumoniae
[2] = system: pathogens in community acquired pneumonia of different severity; test: Sensitivity of CAP pathogens by Fine severity group; format: cell-based
[3] = system: Other non-fermenting bacteria; test: Sensitivity of CAP pathogens with/without antibiotic pretreatment; format: cell-based
[4] = system: S. pneumoniae; test: Broth microdilution; format: cell-based, Streptococcus pneumoniae
[5] = system: Other Haemophilus sp.; test: Sensitivity of CAP pathogens with/without antibiotic pretreatment; format: cell-based
[6] = system: Enterococcus sp; test: as above; format: cell-based
[7] = system: S. pneumoniae; test: MIC of invasive strains, Saint George Hospital 2001–2004; format: cell-based, Streptococcus pneumoniae
[8] = system: H.influenzae; test: Broth microdilution; format: cell-based, Haemophilus influenzae; conditions: Haemophilus influenzae
[9] = system: S. pneumoniae (SPN); test: SENTRY Brazil, NCCLS broth microdilution; format: cell-based, Streptococcus pneumoniae
[10] = system: Streptococcus pneumoniae; test: BSAC agar dilution, lower respiratory isolates UK and Ireland; format: cell-based
[11] = system: S. pyogenes; test: Sensitivity of CAP pathogens with/without antibiotic pretreatment; format: cell-based, Streptococcus pyogenes; conditions: Abs. 4
[12] = system: E. coli; test: as above; format: cell-based, Escherichia coli
[13] = system: S. pneumoniae (Sp); test: Broth microdilution, point prevalence study Spain; format: cell-based, Streptococcus pneumoniae; conditions: 360 isolates, February 2004; penicillin I+R
[14] = system: S. pyogenes; test: Broth microdilution; format: cell-based, Streptococcus pyogenes; conditions: 212 isolates
[15] = system: S. aureus; test: Sensitivity of CAP pathogens with/without antibiotic pretreatment; format: cell-based, Staphylococcus aureus
[16] = system: H. influenzae; test: as above; format: cell-based, Haemophilus influenzae
[17] = system: ‘wild type’ Staphylococcus epidermidis skin isolates; test: NCCLS disk diffusion; format: cell-based; conditions: 52 isolates
[18] = system: Staph. coaq (−); test: Sensitivity of CAP pathogens with/without antibiotic pretreatment; format: cell-based, coagulase-negative Staphylococcus
[19] = system: P. aeruginosa; test: as above; format: cell-based, Pseudomonas aeruginosa; conditions: Abs. 3
[20] = system: beta-haemolytic streptococcal isolates; test: Disk diffusion; format: cell-based, beta-haemolytic streptococci; conditions: 228 isolates
[21] = system: S. -pneumoniae; test: Sensitivity of CAP pathogens with/without antibiotic pretreatment; format: cell-based, Streptococcus pneumoniae
[22] = system: H. influenzae; test: Disk diffusion; format: cell-based, Haemophilus influenzae; conditions: 237 isolates
[23] = system: viridans group streptococci (VGS); test: MIC; format: cell-based
[24] = system: Kl. pneumoniae; test: Sensitivity of CAP pathogens with/without antibiotic pretreatment; format: cell-based, Klebsiella pneumoniae
[25] = system: H. influenzae; test: Disk diffusion, sputum isolates Athens 2001–2004; format: cell-based, Haemophilus influenzae
[26] = system: Total pathogens in community acquired pneumonia; test: Sensitivity of CAP pathogens with/without antibiotic pretreatment; format: cell-based
[27] = system: biofilms of S. aureus (SA204 and SA195) and S. epidermidis (ATCC35983 and ATCC35984); test: Antibiotic lock, in vitro biofilm on polyurethane film, viable counts; format: cell-based, Staphylococcus species; conditions: any of the time intervals examined
[28] = system: Other Enterobacteriacae; test: Sensitivity of CAP pathogens with/without antibiotic pretreatment; format: cell-based, Enterobacteriaceae
[29] = system: C. difficile; test: E-test, isolates from a department of surgery; format: cell-based, Clostridium difficile; conditions: Clostridioides difficile, read-out: MIC of high level resistant strains
[30] = system: Moraxella spp.; test: Disk diffusion; format: cell-based; conditions: 35 isolates
[31] = system: ERSP; test: Broth microdilution; format: cell-based, Streptococcus pneumoniae
[32] = NCCLS breakpoints (Amox/Clav 2/1 mcg/mL)

SMILES: CC[C@H]1OC(=O)[C@H](C)[C@@H](O[C@H]2C[C@@](C)(OC)[C@@H](O)[C@H](C)O2)[C@H](C)[C@@H](O[C@@H]2O[C@H](C)C[C@H](N(C)C)[C@H]2O)[C@](C)(O)C[C@@H](C)C(=O)[C@H](C)[C@@H](O)[C@]1(C)O [erythromycin]
- %Sus [1, 32]: 21.5%
- MIC90 ([1]; Streptococcus pneumoniae, PRSP): > 32 µg/mL
- sensitivity, total strains ([2]; higher severity group (Fine scores >70)): 26,3%
- sensitivity, total strains ([2]; lower severity group (Fine scores <70)): 17.6%
- % of sensitive strains ([3]; after pretreatment, Abs. 0): 0.0%
- % of sensitive strains ([3]; without pretreatment, Abs. 1): 0.0%
- %Sus [4, 32]: 71.2%
- MIC90 ([4]; Streptococcus pneumoniae): > 32 µg/mL
- % of sensitive strains ([5]; after pretreatment, Abs. 11): 0.0%
- % of sensitive strains ([5]; without pretreatment, Abs. 21): 00%
- % of sensitive strains ([6]; after pretreatment, Abs. 0): 0.0%
- % of sensitive strains ([6]; without pretreatment, Abs. 1): 0.0%
- % S [7]: 82%
- %R [7]: 18%
- MIC90 [8]: 8 µg/mL (≈ 10.9 µM)
- % S [9]; 1998: 85%
- % S [9]; 1999: 88%
- % S [9]; 2000: 91%
- % S [9]; 2001: 90%
- % S [9]; 2002: 94%
- % S [9]; 2003: 91%
- resistance (PEN-NS >0.06, TET-R >1, ERY-R >0.5, CIP-R >2 mg/L) ([10]; Ireland 1999–2000, N 66): 27.3%
- resistance (same cut-offs) ([10]; Ireland 2000–2001, N 59): 23.7%
- resistance (same cut-offs) ([10]; Ireland 2001–2002, N 68): 25.0%
- resistance (same cut-offs) ([10]; Ireland 2002–2003, N 89): 12.4%
- resistance (same cut-offs) ([10]; Ireland 2003–2004, N 76): 9.2%
- resistance (same cut-offs) ([10]; UK 1999–2000, N 595): 11.8%
- resistance (same cut-offs) ([10]; UK 2000–2001, N 608): 10.0%
- resistance (same cut-offs) ([10]; UK 2001–2002, N 631): 10.8%
- resistance (same cut-offs) ([10]; UK 2002–2003, N 683): 9.7%
- resistance (same cut-offs) ([10]; UK 2003–2004, N 709): 10.6%
- % of sensitive strains ([11]; after pretreatment): 100.0%
- % of sensitive strains ([11]; without pretreatment): 100.0%
- % of sensitive strains ([12]; after pretreatment, Abs. 1): 0.0%
- % of sensitive strains ([12]; without pretreatment, Abs. 5): 0.0%
- resistance [13]: 36%
- nonsusceptible [14]: 10.8%
- % of sensitive strains ([15]; after pretreatment, Abs. 4): 75.0%
- % of sensitive strains ([15]; without pretreatment, Abs. 11): 45.5%
- % of sensitive strains ([16]; after pretreatment, Abs. 10): 0.0%
- % of sensitive strains ([16]; without pretreatment, Abs. 26): 0.0%
- % resistant [17]: 46.2%
- % of sensitive strains ([18]; after pretreatment, Abs. 2): 50.0%
- % of sensitive strains ([18]; without pretreatment, Abs. 4): 75.0%
- % of sensitive strains ([19]; after pretreatment): 0.0%
- % of sensitive strains ([19]; without pretreatment): 0.0%
- Susceptible isolates [20]: 98%
- % of sensitive strains ([21]; after antibiotic pretreatment, Abs. 3): 100.0%
- % of sensitive strains ([21]; without antibiotic pretreatment, Abs. 13): 100.0%
- Susceptible isolates [22]: 94%
- MIC50 [23]: 0.12 µg/mL (≈ 0.164 µM)
- MIC90 [23]: 256 µg/mL (≈ 349 µM)
- % of sensitive strains ([24]; after pretreatment, Abs. 5): 0.0%
- % of sensitive strains ([24]; without pretreatment, Abs. 4): 0.0%
- resistance rate ([25]; 2001–2002): 49.5%
- resistance rate ([25]; 2003–2004): 58.0%
- % of sensitive strains ([26]; after pretreatment, Abs. 48): 22.9%
- % of sensitive strains ([26]; without pretreatment, Abs. 95): 26.3%
- significant biofilm killing [27]: not achieved
- % of sensitive strains ([28]; after pretreatment, Abs. 5): 0.0%
- % of sensitive strains ([28]; without pretreatment, Abs. 2): 0.0%
- MIC [29]: > 256 µg/mL
- Susceptible isolates [30]: 100%
- %Sus [31, 32]: 0.0%
- MIC90 ([31]; Streptococcus pneumoniae): > 32 µg/mL
